Laboratory results as given in patent US9981023B2, “Compositions and methods for inducing immune tolerance” (The Scripps Research Institute, priority 2010, dated 2018).

Target: T1, CD22 (Mus musculus, UniProt P35329)
T1 sequence (P35329 22-868): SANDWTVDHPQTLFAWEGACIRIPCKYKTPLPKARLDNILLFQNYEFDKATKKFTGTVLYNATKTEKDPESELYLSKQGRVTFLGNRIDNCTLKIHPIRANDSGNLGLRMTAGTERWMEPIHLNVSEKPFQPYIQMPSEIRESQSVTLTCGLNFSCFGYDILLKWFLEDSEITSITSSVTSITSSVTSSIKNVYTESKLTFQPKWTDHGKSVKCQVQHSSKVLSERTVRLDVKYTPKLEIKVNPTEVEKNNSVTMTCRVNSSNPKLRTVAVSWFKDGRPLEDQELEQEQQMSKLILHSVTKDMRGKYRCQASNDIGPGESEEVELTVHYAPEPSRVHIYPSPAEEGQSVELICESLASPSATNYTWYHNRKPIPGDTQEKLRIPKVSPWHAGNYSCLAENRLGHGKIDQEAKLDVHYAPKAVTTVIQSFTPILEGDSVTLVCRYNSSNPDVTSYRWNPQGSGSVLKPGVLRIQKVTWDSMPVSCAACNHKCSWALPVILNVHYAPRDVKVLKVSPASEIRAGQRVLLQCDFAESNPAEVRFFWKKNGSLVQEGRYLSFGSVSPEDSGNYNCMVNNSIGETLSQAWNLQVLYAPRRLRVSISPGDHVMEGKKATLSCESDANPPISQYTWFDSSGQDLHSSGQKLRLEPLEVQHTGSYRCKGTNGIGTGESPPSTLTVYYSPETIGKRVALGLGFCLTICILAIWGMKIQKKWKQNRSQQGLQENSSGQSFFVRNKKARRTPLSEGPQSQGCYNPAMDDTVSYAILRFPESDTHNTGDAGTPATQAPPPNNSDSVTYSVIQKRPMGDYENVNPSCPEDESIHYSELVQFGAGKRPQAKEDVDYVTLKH
Experiment: Affinity of glycan ligand for CD22
Assay type: binding
Conditions: natural ligand of CD22 relative to ^BPANeuGc

CC(=O)NC1C(O)OC(CO)C(OC2OC(COC3(C(=O)O)CC(O)C(NC(=O)CO)C(C(O)C(O)CO)O3)C(O)C(O)C2O)C1O (stereo not shown) [NeuGcα2-6Galβ1-4GlcNAc]
affinity lower than the ^BPANeuGc ligand: approximately 200 fold
